Results reported in patent publication US20230146455A1, “TREATMENT OF INFLAMMATORY DISEASES WITH PEPTIDES AND PHARMACEUTICAL COMPOSITIONS” (Yuyu Pharma, Inc., priority 2020, published 2023).
“And” between values parts separate entries of the source, which are not always exact repeats. Equal entries are not always repeated. Where a SMILES comes first, the peptide text is derived from it. [ ]: non-standard residue; d: D form. Hyp = O=C(O)[C@@H]1C[C@@H](O)CN1

Test system: IL-17A
Assay: Example 9 Luminex, LPS hPBMCs: IL-17A
Type: cell-based, human
Description: Treatment Human PBMCs were pretreated with YY-101, YDE-011 and YDE-043 or reference compound; Xiidra® at various concentration (ranging from 1 nM to 100 uM) for 2 h before stimulation. An equal volume of 0.5% DMSO was used as a vehicle control. Then, the cells were treated with LPS at 5 ug/ml. The supernatants from treated cells were harvested at 24 h and placed in a 96 well for Luminex cytokine & chemokine profiling using a Luminex 200 multiplex assay (Luminex; R&D system, USA).
The main study arm with triplicate wells per group in a 24-well plate: • 1. Blank • 2. PBMC: 0.5% DMSO • 3. PBMC+LPS (5 ug/ml) • 4. PBMC+YY-101 100 uM • 5. PBMC+YY-101 10 uM • 6. PBMC+YY-101 1 uM • 7. PBMC+YY-101 0.1 uM • 8. PBMC+YY-101 0.01 uM • 9. PBMC+LPS (5 ug/ml)+Xiidra®100 uM • 10. PBMC+LPS (5 ug/ml)+Xiidra® 10 uM • 11. PBMC+LPS (5 ug/ml)+Xiidra® 1 uM • 12. PBMC+LPS (5 ug/ml)+Xiidra®0.1 uM • 13. PBMC+LPS (5 ug/ml)+Xiidra®0.01 uM • 14. PBMC+LPS (5 ug/ml)+Xiidra®0.001 uM • 15. PBMC+LPS (5 ug/ml)+YY-101 100 uM • 16. PBMC+LPS (5 ug/ml)+YY-101 10 uM • 17. PBMC+LPS (5 ug/ml)+YY-101 1 uM • 18. PBMC+LPS (5 ug/ml)+YY-101 0.1 uM • 19. PBMC+LPS (5 ug/ml)+YY-101 0.01 uM • 20. PBMC+LPS (5 ug/ml)+YY-101 0.001 uM • 21. PBMC+LPS (5 ug/ml)+YDE-011 100 uM • 22. PBMC+LPS (5 ug/ml)+YDE-011 10 uM • 23. PBMC+LPS (5 ug/ml)+YDE-011 1 uM • 24. PBMC+LPS (5 ug/ml)+YDE-011 0.1 uM • 25. PBMC+LPS (5 ug/ml)+YDE-011 0.01 uM • 26. PBMC+LPS (5 ug/ml)+YDE-011 0.001 uM • 27. PBMC+LPS (5 ug/ml)+YDE-043 100 uM • 28. PBMC+LPS (5 ug/ml)+YDE-043 10 uM • 29. PBMC+LPS (5 ug/ml)+YDE-043 1 uM • 30. PBMC+LPS (5 ug/ml)+YDE-043 0.1 uM • 31. PBMC+LPS (5 ug/ml)+YDE-043 0.01 uM • 32. PBMC+LPS (5 ug/ml)+YDE-043 0.001 uM
Multiplex assay was used to measure 30 cytokines and chemokines. The 1:2, 1:10 and 1:200 diluted cell supernatant and serial dilution of the standard were dispensed into a 96 well plate at 50 ul/well. Then, the pre-mixed cocktail of antibody-coated magnetic beads was dispensed at 50 ul/well and incubated at room temperature for 2 h in a horizontal orbital microplate shaker at 800±500 rpm. The beads were washed using a magnetic device to prevent loss. The biotin-antibody was dispensed in 50 ul of each well and incubated at room temperature for 1 h in a shaker at 800±500 rpm. After washing, streptavidin-PE was added at 50 ul/well and incubated at room temperature for 30 min in a shaker under the same conditions. Finally, after washing, wash buffer (100 ul/well) was added to the plate and incubated in a shaker for 2 min. The Luminex™ 200 setting were set according to the manufacturer's protocol. The data was calculated with a standard five-parameter logistic nonlinear regression analysis of the data (xPonent software 4.2, USA). The levels of cytokine/chemokine are normalized to the live cell counts (1×10^5 cells/mL) and presented as concentrations per mL (pg/mL or ng/mL).

[1] = PBMC + LPS(5 ug/ml) + test article 0.001 uM, Mean
[2] = PBMC + LPS(5 ug/ml) + test article 0.001 uM, single replicates (1st, 2nd, 3rd)
[3] = PBMC + LPS(5 ug/ml) + test article 0.01 uM, Mean
[4] = PBMC + LPS(5 ug/ml) + test article 0.01 uM, single replicates (1st, 2nd, 3rd)
[5] = PBMC + LPS(5 ug/ml) + test article 0.1 uM, Mean
[6] = PBMC + LPS(5 ug/ml) + test article 0.1 uM, single replicates (1st, 2nd, 3rd)
[7] = PBMC + LPS(5 ug/ml) + test article 1 uM, Mean
[8] = PBMC + LPS(5 ug/ml) + test article 1 uM, single replicates (1st, 2nd, 3rd)
[9] = PBMC + LPS(5 ug/ml) + test article 10 uM, Mean
[10] = PBMC + LPS(5 ug/ml) + test article 10 uM, single replicates (1st, 2nd, 3rd)
[11] = PBMC + LPS(5 ug/ml) + test article 100 uM, Mean
[12] = PBMC + LPS(5 ug/ml) + test article 100 uM, single replicates (1st, 2nd, 3rd)
[13] = PBMC without LPS + test article 0.01 uM, Mean
[14] = PBMC without LPS + test article 0.01 uM, single replicates (1st, 2nd)
[15] = PBMC without LPS + test article 0.1 uM, Mean
[16] = PBMC without LPS + test article 0.1 uM, single replicates (1st, 2nd)
[17] = PBMC without LPS + test article 1 uM, Mean
[18] = PBMC without LPS + test article 1 uM, single replicates (1st, 2nd)
[19] = PBMC without LPS + test article 10 uM, Mean
[20] = PBMC without LPS + test article 10 uM, single replicates (1st, 2nd)
[21] = PBMC without LPS + test article 100 uM, Mean
[22] = PBMC without LPS + test article 100 uM, single replicates (1st, 2nd)

SMILES: CC(C)C[C@H](NC(=O)CNC(=O)[C@H](CC(=O)O)NC(=O)[C@H](CCC(N)=O)NC(=O)CNC(=O)[C@@H]1C[C@@H](O)CN1)C(=O)N[C@@H](C)C(=O)NCC(=O)N1CCC[C@H]1C(=O)N[C@@H](CCCCN)C(=O)O [YY-101] (H-[Hyp]GQDGLAGPK-OH; N-terminus and C-terminus assumed)
- Concentration, IL-17A [1]: 3.8 pg/mL
- MFI, Bead name: IL-17A [1]: 2.2
- conc/live cell, IL-17A [1]: 0.6 pg/10^5
- Concentration, IL-17A [2]: 4.3 pg/ml (2×) and 2.7 pg/ml
- MFI, Bead name: IL-17A [2]: 2.5 (2×) and 1.5
- conc/live cell, IL-17A [2]: 0.8 pg/10^5 and 0.6 pg/10^5 and 0.4 pg/10^5
- Concentration, IL-17A [3]: 4.9 pg/mL
- MFI, Bead name: IL-17A [3]: 2.8
- conc/live cell, IL-17A [3]: 0.8 pg/10^5
- Concentration, IL-17A [4]: 6.0 pg/ml (2×) and 2.7 pg/ml
- MFI, Bead name: IL-17A [4]: 3.5 (2×) and 1.5
- conc/live cell, IL-17A [4]: 0.9 pg/10^5 and 1.0 pg/10^5 and 0.4 pg/10^5
- Concentration, IL-17A [5]: 4.3 pg/mL
- MFI, Bead name: IL-17A [5]: 2.5
- conc/live cell, IL-17A [5]: 0.7 pg/10^5
- Concentration, IL-17A [6]: 6.0 pg/ml (2×) and 1.0 pg/ml
- MFI, Bead name: IL-17A [6]: 3.5 (2×) and 0.5
- conc/live cell, IL-17A [6]: 1.0 pg/10^5 (2×) and 0.2 pg/10^5
- Concentration, IL-17A [7]: 5.4 pg/mL
- MFI, Bead name: IL-17A [7]: 3.2
- conc/live cell, IL-17A [7]: 0.8 pg/10^5
- Concentration, IL-17A [8]: 4.3 pg/ml (2×) and 7.5 pg/ml
- MFI, Bead name: IL-17A [8]: 2.5 (2×) and 4.5
- conc/live cell, IL-17A [8]: 0.7 pg/10^5 and 0.6 pg/10^5 and 1.2 pg/10^5
- Concentration, IL-17A [9]: 3.3 pg/mL
- MFI, Bead name: IL-17A [9]: 1.8
- conc/live cell, IL-17A [9]: 0.5 pg/10^5
- Concentration, IL-17A [10]: 4.3 pg/ml and 2.7 pg/ml (2×)
- MFI, Bead name: IL-17A [10]: 2.5 and 1.5 (2×)
- conc/live cell, IL-17A [10]: 0.7 pg/10^5 and 0.4 pg/10^5 (2×)
- Concentration, IL-17A [11]: 1.6 pg/mL
- MFI, Bead name: IL-17A [11]: 0.8
- conc/live cell, IL-17A [11]: 0.3 pg/10^5
- Concentration, IL-17A [12]: 1.0 pg/ml (2×) and 2.7 pg/ml
- MFI, Bead name: IL-17A [12]: 0.5 (2×) and 1.5
- conc/live cell, IL-17A [12]: 0.2 pg/10^5 (2×) and 0.4 pg/10^5
- Concentration, IL-17A [13]: 7.5 pg/mL
- MFI, Bead name: IL-17A [13]: 4.5
- conc/live cell, IL-17A [13]: 1.5 pg/10^5
- Concentration, IL-17A [14]: 7.5 pg/mL
- MFI, Bead name: IL-17A [14]: 4.5
- conc/live cell, IL-17A [14]: 1.5 pg/10^5 and 1.6 pg/10^5
- Concentration, IL-17A [15]: 8.3 pg/mL
- MFI, Bead name: IL-17A [15]: 5.0
- conc/live cell, IL-17A [15]: 1.5 pg/10^5
- Concentration, IL-17A [16]: 4.3 pg/mL and 12.2 pg/mL
- MFI, Bead name: IL-17A [16]: 2.5 and 7.5
- conc/live cell, IL-17A [16]: 1.0 pg/10^5 and 2.1 pg/10^5
- Concentration, IL-17A [17]: 5.2 pg/mL
- MFI, Bead name: IL-17A [17]: 3.0
- conc/live cell, IL-17A [17]: 0.9 pg/10^5
- Concentration, IL-17A [18]: 6.0 pg/mL and 4.3 pg/mL
- MFI, Bead name: IL-17A [18]: 3.5 and 2.5
- conc/live cell, IL-17A [18]: 1.1 pg/10^5 and 0.8 pg/10^5
- Concentration, IL-17A [19]: 18.3 pg/mL
- MFI, Bead name: IL-17A [19]: 11.5
- conc/live cell, IL-17A [19]: 2.9 pg/10^5
- Concentration, IL-17A [20]: 22.9 pg/mL and 13.8 pg/mL
- MFI, Bead name: IL-17A [20]: 14.5 and 8.5
- conc/live cell, IL-17A [20]: 3.6 pg/10^5 and 2.3 pg/10^5
- Concentration, IL-17A [21]: 3.5 pg/mL
- MFI, Bead name: IL-17A [21]: 2.0
- conc/live cell, IL-17A [21]: 0.5 pg/10^5
- Concentration, IL-17A [22]: 2.7 pg/mL and 4.3 pg/mL
- MFI, Bead name: IL-17A [22]: 1.5 and 2.5
- conc/live cell, IL-17A [22]: 0.4 pg/10^5 and 0.6 pg/10^5
